According to ChEMBL document CHEMBL6134819, “Discovery of novel tranylcypromine-indazole-based derivatives as LSD1 inhibitors for acute myeloid leukemia treatment” (Eur J Med Chem, 2025):

Columns and labels:
[1] = target: Lysine-specific histone demethylase 1A (Homo sapiens, UniProt O60341); test: Inhibition of human recombinant LSD1 (852 residues) incubated for 1 hr by HTRF method
MV4-11 = test: Antiproliferative activity against human MV4-11 cells assessed as inhibition of cell growth measured after 7 days by cell-titer glo assay; format: functional, cell-based; settings: MV4-11, 168 h
HL-60 = test: Antiproliferative activity against human HL-60 cells assessed as inhibition of cell growth measured after 7 days by cell-titer glo assay; format: functional, cell-based; settings: HL-60, 168 h
THP-1 = test: Antiproliferative activity against human THP-1 cells assessed as inhibition of cell growth measured after 7 days by cell-titer glo assay; format: functional, cell-based; settings: THP-1, 168 h
[2] = target: Voltage-gated inwardly rectifying potassium channel KCNH2 (Homo sapiens, UniProt Q12809); test: Inhibition of human ERG by whole cell patch clamp assay; format: toxicity
Voltage-gated inwardly rectifying potassium channel KCNH2, sequence (Q12809 whole entry): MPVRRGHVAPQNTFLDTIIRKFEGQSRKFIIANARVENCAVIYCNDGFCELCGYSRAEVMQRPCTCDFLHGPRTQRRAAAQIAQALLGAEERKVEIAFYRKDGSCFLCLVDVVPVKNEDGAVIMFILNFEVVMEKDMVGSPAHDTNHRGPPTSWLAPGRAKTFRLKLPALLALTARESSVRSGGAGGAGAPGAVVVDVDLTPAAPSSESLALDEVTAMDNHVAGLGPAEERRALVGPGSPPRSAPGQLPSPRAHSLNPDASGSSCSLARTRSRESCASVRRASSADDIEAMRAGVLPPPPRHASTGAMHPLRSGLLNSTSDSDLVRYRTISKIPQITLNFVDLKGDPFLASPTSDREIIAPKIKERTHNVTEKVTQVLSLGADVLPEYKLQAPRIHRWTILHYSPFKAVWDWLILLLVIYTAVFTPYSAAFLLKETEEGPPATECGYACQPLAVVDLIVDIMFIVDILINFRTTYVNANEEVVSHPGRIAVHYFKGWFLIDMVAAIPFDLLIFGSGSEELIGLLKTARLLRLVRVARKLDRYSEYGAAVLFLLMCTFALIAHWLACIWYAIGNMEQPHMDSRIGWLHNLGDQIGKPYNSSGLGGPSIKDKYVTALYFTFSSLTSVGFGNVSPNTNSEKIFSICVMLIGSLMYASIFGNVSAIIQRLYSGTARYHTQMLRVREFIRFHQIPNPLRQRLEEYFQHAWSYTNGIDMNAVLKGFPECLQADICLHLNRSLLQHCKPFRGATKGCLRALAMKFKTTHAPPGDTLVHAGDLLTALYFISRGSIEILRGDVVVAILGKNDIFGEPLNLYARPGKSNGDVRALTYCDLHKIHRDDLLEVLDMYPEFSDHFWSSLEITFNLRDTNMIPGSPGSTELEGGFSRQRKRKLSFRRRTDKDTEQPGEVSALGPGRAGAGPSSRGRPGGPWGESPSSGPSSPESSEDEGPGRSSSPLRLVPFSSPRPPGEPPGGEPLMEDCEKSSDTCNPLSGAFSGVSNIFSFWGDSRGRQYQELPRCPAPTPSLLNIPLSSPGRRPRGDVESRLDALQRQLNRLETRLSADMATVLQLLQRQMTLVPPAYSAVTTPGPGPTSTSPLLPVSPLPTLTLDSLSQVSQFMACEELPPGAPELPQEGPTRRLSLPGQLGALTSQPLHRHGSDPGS

SMILES: O=S(=O)(C1CC1)n1ncc2cc(-n3cc(CN[C@@H]4C[C@H]4c4ccc(F)c(F)c4)nn3)ccc21
- IC50 [1]: 4.3 nM
- IC50 (MV4-11): 6.32 µM
- IC50 (HL-60): 5.57 µM
- IC50 (THP-1): 3.39 µM

SMILES: CC(C)C(=O)n1ncc2cc(-n3cc(CN[C@@H]4C[C@H]4c4ccc(F)c(F)c4)nn3)ccc21
- IC50 [1]: 9.97 nM
- IC50 (MV4-11): 3.89 µM
- IC50 (HL-60): 3.42 µM
- IC50 (THP-1): 3.59 µM

SMILES: Fc1ccc([C@@H]2C[C@H]2NCc2cn(-c3ccc4c(cnn4CC(F)(F)F)c3)nn2)cc1F
- IC50 [1]: 1.59 nM
- IC50 (MV4-11): 10.9 µM
- IC50 (HL-60): 1.86 µM
- IC50 (THP-1): 5.01 µM

SMILES: Fc1ccc([C@@H]2C[C@H]2NCc2cn(-c3cnc4[nH]ncc4c3)nn2)cc1F
- IC50 [1]: 20.9 nM

SMILES: Fc1ccc([C@@H]2C[C@H]2NCc2cn(-c3n[nH]c4ccccc34)nn2)cc1F
- IC50 [1]: 5.1 nM
- IC50 (MV4-11): > 25 µM
- IC50 (HL-60): > 25 µM
- IC50 (THP-1): > 25 µM

SMILES: Fc1ccc([C@@H]2C[C@H]2NCc2cn(CCc3ccc4[nH]ncc4c3)nn2)cc1F
- IC50 [1]: 57.9 nM

SMILES: O=C(C1CCCC1)n1ncc2cc(-n3cc(CN[C@@H]4C[C@H]4c4ccc(F)c(F)c4)nn3)ccc21
- IC50 [1]: 12 nM
- IC50 (MV4-11): 8.25 µM
- IC50 (HL-60): 3.44 µM
- IC50 (THP-1): 8.37 µM

SMILES: CC(=O)n1ncc2cc(-n3cc(CN[C@@H]4C[C@H]4c4ccc(F)c(F)c4)nn3)ccc21
- IC50 [1]: 8.4 nM
- IC50 (MV4-11): 3.87 µM
- IC50 (HL-60): 4.22 µM
- IC50 (THP-1): 5.4 µM

SMILES: CCS(=O)(=O)n1ncc2cc(-n3cc(CN[C@@H]4C[C@H]4c4ccc(F)c(F)c4)nn3)ccc21
- IC50 [1]: 7.77 nM
- IC50 (MV4-11): 11.5 µM
- IC50 (HL-60): 6.81 µM
- IC50 (THP-1): 4.59 µM

SMILES: Fc1ccc([C@@H]2C[C@H]2NCc2cn(-c3ccc4c(cnn4Cc4ccccc4)c3)nn2)cc1F
- IC50 [1]: 8.28 nM
- IC50 (MV4-11): 4.08 µM
- IC50 (HL-60): 3.83 µM
- IC50 (THP-1): 1.67 µM

SMILES: Fc1ccc([C@@H]2C[C@H]2NCc2cn(-c3ccc4[nH]ncc4c3)nn2)cc1F
- IC50 [2]: 610 nM

SMILES: COc1cc2[nH]ncc2cc1-n1cc(CN[C@@H]2C[C@H]2c2ccc(F)c(F)c2)nn1
- IC50 [1]: 3.46 nM
- IC50 (MV4-11): 8.74 µM
- IC50 (HL-60): 10.9 µM
- IC50 (THP-1): 12.6 µM

SMILES: O=C(C1CCC1)n1ncc2cc(-n3cc(CN[C@@H]4C[C@H]4c4ccc(F)c(F)c4)nn3)ccc21
- IC50 [1]: 15.5 nM
- IC50 (MV4-11): 5.51 µM
- IC50 (HL-60): 6.12 µM
- IC50 (THP-1): 10.9 µM

SMILES: O=C(C1CC1)n1ncc2cc(-n3cc(CN[C@@H]4C[C@H]4c4ccc(F)c(F)c4)nn3)ccc21
- IC50 [1]: 12.3 nM
- IC50 (MV4-11): 2.61 µM
- IC50 (HL-60): 5.5 µM
- IC50 (THP-1): 5.94 µM

SMILES: CS(=O)(=O)n1ncc2cc(-n3cc(CN[C@@H]4C[C@H]4c4ccc(F)c(F)c4)nn3)ccc21
- IC50 [1]: 14.6 nM
- IC50 (MV4-11): 3.31 µM
- IC50 (HL-60): 2.41 µM
- IC50 (THP-1): 24.3 µM

SMILES: Cc1cc2[nH]ncc2cc1-n1cc(CN[C@@H]2C[C@H]2c2ccc(F)c(F)c2)nn1
- IC50 [1]: 11.1 nM
- IC50 (MV4-11): 6.28 µM
- IC50 (HL-60): 4.11 µM
- IC50 (THP-1): 5.7 µM

SMILES: Fc1ccc([C@@H]2C[C@H]2NCc2cn(-c3cccc4[nH]ncc34)nn2)cc1F
- IC50 [1]: 6.63 nM
- IC50 (MV4-11): 12.5 µM
- IC50 (HL-60): 15.5 µM
- IC50 (THP-1): 3.95 µM

SMILES: CCC(=O)n1ncc2cc(-n3cc(CN[C@@H]4C[C@H]4c4ccc(F)c(F)c4)nn3)ccc21
- IC50 [1]: 11.6 nM
- IC50 (MV4-11): 2.56 µM
- IC50 (HL-60): 1.53 µM
- IC50 (THP-1): 7.29 µM

SMILES: Fc1ccc([C@@H]2C[C@H]2NCc2cn(-c3ccc4cn[nH]c4c3)nn2)cc1F
- IC50 [1]: 14.4 nM
- IC50 (MV4-11): > 25 µM
- IC50 (HL-60): > 25 µM
- IC50 (THP-1): 3.76 µM

SMILES: Cn1ncc2cc(-n3cc(CN[C@@H]4C[C@H]4c4ccc(F)c(F)c4)nn3)ccc21
- IC50 [1]: 4.62 nM
- IC50 (MV4-11): 17.1 µM
- IC50 (HL-60): 2.49 µM
- IC50 (THP-1): 4.52 µM

SMILES: Fc1ccc([C@@H]2C[C@H]2NCc2cn(Cc3ccc4[nH]ncc4c3)nn2)cc1F
- IC50 [1]: 11.5 nM
- IC50 (MV4-11): 6.56 µM
- IC50 (HL-60): 2.47 µM
- IC50 (THP-1): 6.34 µM

SMILES: O=C(C1CCCCC1)n1ncc2cc(-n3cc(CN[C@@H]4C[C@H]4c4ccc(F)c(F)c4)nn3)ccc21
- IC50 [1]: 15.9 nM
- IC50 (MV4-11): 9.67 µM
- IC50 (HL-60): 3 µM
- IC50 (THP-1): 5.57 µM

SMILES: Fc1ccc([C@@H]2C[C@H]2NCc2cn(-c3ccc4c(cnn4C4CCCC4)c3)nn2)cc1F
- IC50 [1]: 4.14 nM
- IC50 (MV4-11): 2.86 µM
- IC50 (HL-60): 4.05 µM
- IC50 (THP-1): 3.88 µM

SMILES: O=C(c1ccccc1)n1ncc2cc(-n3cc(CN[C@@H]4C[C@H]4c4ccc(F)c(F)c4)nn3)ccc21
- IC50 [1]: 7.55 nM
- IC50 (MV4-11): 6.3 µM
- IC50 (HL-60): 2.81 µM
- IC50 (THP-1): 12.9 µM

SMILES: O=S(=O)(C1CCCCC1)n1ncc2cc(-n3cc(CN[C@@H]4C[C@H]4c4ccc(F)c(F)c4)nn3)ccc21
- IC50 [1]: 4.82 nM
- IC50 (MV4-11): 4.33 µM
- IC50 (HL-60): 1.88 µM
- IC50 (THP-1): 2.41 µM

SMILES: CCn1ncc2cc(-n3cc(CN[C@@H]4C[C@H]4c4ccc(F)c(F)c4)nn3)ccc21
- IC50 [1]: 3.8 nM
- IC50 (MV4-11): 3.52 µM
- IC50 (HL-60): 7.83 µM
- IC50 (THP-1): 6.52 µM

SMILES: Fc1ccc([C@@H]2C[C@H]2NCc2cn(-c3cc4cn[nH]c4cc3F)nn2)cc1F
- IC50 [1]: 6.45 nM
- IC50 (MV4-11): 6.86 µM
- IC50 (HL-60): 7.44 µM
- IC50 (THP-1): 7.5 µM

SMILES: O=C(Cc1ccccc1)n1ncc2cc(-n3cc(CN[C@@H]4C[C@H]4c4ccc(F)c(F)c4)nn3)ccc21
- IC50 [1]: 15.6 nM
- IC50 (MV4-11): 7.84 µM
- IC50 (HL-60): 2.83 µM
- IC50 (THP-1): 8.32 µM
